In patent publication US8361968B2 (Takeda Pharmaceutical Company Limited, priority 2002, dated 2013):
Square brackets hold non-standard residues; d marks the D form. Peptide text beside a SMILES is read from it. * marks the point of attachment. Propanoyl(3-indol-3-yl) = O=C(CCc1c[nH]c2ccccc12)*; 1Nal = N[C@@H](Cc1cccc2ccccc12)C(=O)O; Arg(Me) = CNC(=N)NCCC[C@H](N)C(=O)O; Cha = N[C@@H](CC1CCCCC1)C(=O)O; X3 = NC(=S)[C@H](Cc1ccccc1)N*

Tests used:
[1] = molecular target: T1, hOT7T175 (Homo sapiens, UniProt Q969F8, L364H); assay: hOT7T175 receptor binding activity: binding inhibition of Cy-5-labeled metastin (40-54) on hOT7T175-expressed CHO cells; design: expressed in transfected cells; host or cells: CHO cells
T1 sequence (Q969F8 whole entry L364H): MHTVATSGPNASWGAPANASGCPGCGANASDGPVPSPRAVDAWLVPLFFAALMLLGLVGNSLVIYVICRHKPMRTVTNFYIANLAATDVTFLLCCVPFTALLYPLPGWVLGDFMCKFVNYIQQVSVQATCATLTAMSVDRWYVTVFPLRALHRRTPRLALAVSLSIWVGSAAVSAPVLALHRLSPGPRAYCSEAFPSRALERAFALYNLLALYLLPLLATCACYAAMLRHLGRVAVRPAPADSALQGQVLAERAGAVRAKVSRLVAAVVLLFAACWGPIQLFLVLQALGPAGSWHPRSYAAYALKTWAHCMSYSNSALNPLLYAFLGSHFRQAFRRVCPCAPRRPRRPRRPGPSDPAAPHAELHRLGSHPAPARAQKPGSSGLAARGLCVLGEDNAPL

[2] = molecular target: T1, hOT7T175; assay: Intracellular Ca ion level-increasing activity using FLIPR in hOT7T175/CHO; format: cell-based; design: expressed in transfected cells; host or cells: CHO/dhfr- cells, obtained from ATCC; settings: relative, Metastin (1-54) = 1

Structure (SMILES): CC(C)C[C@H](NC(=O)CNC(=O)[C@H](Cc1ccccc1)NC(=O)[C@H](CO)NC(=O)[C@H](CC(N)=O)NC(=O)[C@H](Cc1c[nH]c2ccccc12)NC(=O)[C@H](CC(N)=O)NC(=O)[C@@H](N)Cc1ccc(O)cc1)C(=O)N[C@@H](CCCNC(=N)N)C(=O)N[C@@H](Cc1ccc(O)cc1)C(N)=O [Compound No. 109] (H-YNWNSFGLRY-NH2)
- IC50 [1]: 23 nM
- Specific Activity (intracellular Ca ion level-increasing activity) [2]: 20

Structure (SMILES): CC(C)C[C@H](NC(=O)CNC(=O)[C@H](Cc1ccccc1)NC(=O)[C@H](CO)NC(=O)[C@H](CC(N)=O)NC(=O)[C@H](Cc1c[nH]c2ccccc12)NC(=O)[C@H](CC(N)=O)NC(=O)[C@@H](N)Cc1ccc(O)cc1)C(=O)N[C@@H](CCCNC(=N)N)C(=O)N[C@@H](Cc1c(F)c(F)c(F)c(F)c1F)C(N)=O [Compound No. 111]
- IC50 [1]: 140 nM
- Specific Activity (intracellular Ca ion level-increasing activity) [2]: 3

Structure (SMILES): CC(C)C[C@H](NC(=O)CNC(=O)[C@H](Cc1ccccc1)NC(=O)[C@H](CO)NC(=O)[C@H](CC(N)=O)NC(=O)[C@H](Cc1c[nH]c2ccccc12)NC(=O)[C@H](CC(N)=O)NC(=O)[C@@H](N)Cc1ccc(O)cc1)C(=O)N[C@@H](CCCNC(=N)N)C(=O)N[C@@H](CC1CCCCC1)C(N)=O [Compound No. 112] (H-YNWNSFGLR[Cha]-NH2)
- IC50 [1]: 370 nM
- Specific Activity (intracellular Ca ion level-increasing activity) [2]: 2

Structure (SMILES): CC(C)C[C@H](NC(=O)CNC(=O)[C@H](Cc1ccccc1)NC(=O)[C@H](CO)NC(=O)[C@H](CC(N)=O)NC(=O)CCc1c[nH]c2ccccc12)C(=O)N[C@@H](CCCNC(=N)N)C(=O)N[C@@H](Cc1ccccc1)C(N)=O [Compound No. 114, 3-(3-Indolyl)propionyl-Asn-Ser-Phe-Gly-Leu-Arg-Phe-NH2] ({Propanoyl(3-indol-3-yl)}-NSFGLRF-NH2)
- IC50 [1]: 550 nM
- Specific Activity (intracellular Ca ion level-increasing activity) [2]: 3

Structure (SMILES): CC(C)C[C@H](NC(=O)CNC(=O)[C@H](Cc1ccccc1)NC(=O)[C@H](CO)NC(=O)[C@H](CC(N)=O)NC(=O)[C@H](Cc1c[nH]c2ccccc12)NC(=O)[C@H](CC(N)=O)NC(=O)[C@@H](N)Cc1ccc(O)cc1)C(=O)N[C@@H](CCCNC(=N)N)C(=O)N[C@@H](Cc1ccc(Cl)cc1)C(N)=O [Compound No. 130]
- IC50 [1]: 42 nM
- Specific Activity (intracellular Ca ion level-increasing activity) [2]: 10

Structure (SMILES): CC(C)C[C@H](NC(=O)CNC(=O)[C@H](Cc1ccccc1)NC(=O)[C@H](CO)NC(=O)[C@H](CC(N)=O)NC(=O)[C@H](Cc1c[nH]c2ccccc12)NC(=O)[C@H](CC(N)=O)NC(=O)[C@@H](N)Cc1ccc(O)cc1)C(=O)N[C@@H](CCCNC(=N)N)C(=O)N[C@@H](Cc1ccc(N)cc1)C(N)=O [Compound No. 131]
- IC50 [1]: 120 nM
- Specific Activity (intracellular Ca ion level-increasing activity) [2]: 3

Structure (SMILES): CC(C)C[C@H](NC(=O)CNC(=O)[C@H](Cc1ccccc1)NC(=O)[C@H](CO)NC(=O)[C@H](CC(N)=O)NC(=O)[C@H](Cc1c[nH]c2ccccc12)NC(=O)[C@H](CC(N)=O)NC(=O)[C@@H](N)Cc1ccc(O)cc1)C(=O)N[C@@H](CCCNC(=N)N)C(=O)N[C@@H](Cc1cccc2ccccc12)C(N)=O [Compound No. 133] (H-YNWNSFGLR[1Nal]-NH2)
- IC50 [1]: 330 nM
- Specific Activity (intracellular Ca ion level-increasing activity) [2]: 3

Structure (SMILES): CNC(=N)NCCC[C@H](NC(=O)[C@H](CC(C)C)NC(=O)CNC(=O)[C@H](Cc1ccccc1)NC(=O)[C@H](CO)NC(=O)[C@H](CC(N)=O)NC(=O)[C@@H](Cc1c[nH]c2ccccc12)NC(=O)[C@H](CC(N)=O)NC(=O)[C@H](N)Cc1ccc(O)cc1)C(=O)N[C@@H](Cc1ccccc1)C(N)=O [Compound No. 142, D-Tyr-Asn-D-Trp-Asn-Ser-Phe-Gly-Leu-Arg(Me)-Phe-NH2]
- IC50 [1]: 26 nM
- Specific Activity (intracellular Ca ion level-increasing activity) [2]: 2

Structure (SMILES): CNC(=N)NCCC[C@H](NC(=O)[C@H](CC(C)C)NC(=O)CNC(=O)[C@H](Cc1ccccc1)NC(=O)[C@H](CO)NC(=O)[C@H](CC(N)=O)NC(=O)[C@@H](Cc1c[nH]c2ccccc12)NC(=O)[C@H](CC(N)=O)NC(=O)[C@@H](N)Cc1ccc(O)cc1)C(=O)N[C@@H](Cc1ccccc1)C(N)=O [Compound No. 143, Tyr-Asn-D-Trp-Asn-Ser-Phe-Gly-Leu-Arg(Me)-Phe-NH2]
- IC50 [1]: 7.7 nM
- Specific Activity (intracellular Ca ion level-increasing activity) [2]: 3

Structure (SMILES): CC(C)C[C@H](NC(=O)CNC(=O)[C@H](Cc1ccccc1)NC(=O)[C@H](CO)NC(=O)[C@H](CC(N)=O)NC(=O)[C@H](Cc1c[nH]c2ccccc12)NC(=O)[C@H](CC(N)=O)NC(=O)[C@H](N)Cc1ccc(O)cc1)C(=O)N[C@@H](CCCNC(=N)N)C(=O)N[C@@H](Cc1ccccc1)C(N)=S [Compound No. 146] (H-[dY]NWNSFGLR-X3)
- IC50 [1]: 370 nM
- Specific Activity (intracellular Ca ion level-increasing activity) [2]: 10

Structure (SMILES): CC(C)C[C@H](NC(=O)CNC(=O)[C@H](Cc1cccc2ccccc12)NC(=O)[C@H](CO)NC(=O)[C@H](CC(N)=O)NC(=O)[C@H](Cc1c[nH]c2ccccc12)NC(=O)[C@H](CC(N)=O)NC(=O)[C@@H](N)Cc1ccc(O)cc1)C(=O)N[C@@H](CCCNC(=N)N)C(=O)N[C@@H](Cc1ccccc1)C(N)=O [Compound No. 151, Tyr-Asn-Trp-Asn-Ser-Nal(1)-Gly-Leu-Arg-Phe-NH2] (H-YNWNS[1Nal]GLRF-NH2; N-terminus assumed)
- IC50 [1]: 300 nM
- Specific Activity (intracellular Ca ion level-increasing activity) [2]: 1

Structure (SMILES): CC(C)C[C@H](NC(=O)CNC(=O)[C@H](CC1CCCCC1)NC(=O)[C@H](CO)NC(=O)[C@H](CC(N)=O)NC(=O)[C@H](Cc1c[nH]c2ccccc12)NC(=O)[C@H](CC(N)=O)NC(=O)[C@@H](N)Cc1ccc(O)cc1)C(=O)N[C@@H](CCCNC(=N)N)C(=O)N[C@@H](Cc1ccccc1)C(N)=O [Compound No. 156, Tyr-Asn-Trp-Asn-Ser-Cha-Gly-Leu-Arg-Phe-NH2] (H-YNWNS[Cha]GLRF-NH2)
- IC50 [1]: 49 nM
- Specific Activity (intracellular Ca ion level-increasing activity) [2]: 2

Structure (SMILES): CNC(=N)NCCC[C@H](NC(=O)[C@H](CC(C)C)NC(=O)CNC(=O)[C@H](Cc1ccccc1)NC(=O)[C@H](CO)NC(=O)[C@H](CC(N)=O)NC(=O)[C@H](CO)NC(=O)[C@H](CC(N)=O)NC(=O)[C@H](N)Cc1ccc(O)cc1)C(=O)N[C@@H](Cc1ccccc1)C(N)=O [Compound No. 170] (H-[dY]NSNSFGL[Arg(Me)]F-NH2; N-terminus assumed)
- IC50 [1]: 260 nM
- Specific Activity (intracellular Ca ion level-increasing activity) [2]: 1

Structure (SMILES): CNC(=N)NCCC[C@H](NC(=O)[C@H](CC(C)C)NC(=O)CNC(=O)[C@H](Cc1ccccc1)NC(=O)[C@H](CO)NC(=O)[C@H](CC(N)=O)NC(=O)[C@H](CC1CCCCC1)NC(=O)[C@H](CC(N)=O)NC(=O)[C@H](N)Cc1ccc(O)cc1)C(=O)N[C@@H](Cc1ccccc1)C(N)=O [Compound No. 171, D-Tyr-Asn-Cha-Asn-Ser-Phe-Gly-Leu-Arg(Me)-Phe-NH2] (H-[dY]N[Cha]NSFGL[Arg(Me)]F-NH2)
- IC50 [1]: 110 nM
- Specific Activity (intracellular Ca ion level-increasing activity) [2]: 10

Structure (SMILES): CNC(=N)NCCC[C@H](NC(=O)[C@H](CC(C)C)NC(=O)CNC(=O)[C@H](CC1CCCCC1)NC(=O)[C@H](CO)NC(=O)[C@H](CC(N)=O)NC(=O)[C@H](CC1CCCCC1)NC(=O)[C@H](CC(N)=O)NC(=O)[C@H](N)Cc1ccc(O)cc1)C(=O)N[C@@H](Cc1c[nH]c2ccccc12)C(N)=O [Compound No. 182, D-Tyr-Asn-Cha-Asn-Ser-Cha-Gly-Leu-Arg(Me)-Trp-NH2] (H-[dY]N[Cha]NS[Cha]GL[Arg(Me)]W-NH2)
- IC50 [1]: 98 nM
- Specific Activity (intracellular Ca ion level-increasing activity) [2]: 5
